{
  "source": "patent EP4729516A1",
  "about": "“S[…] DERIVATIVE, INTERMEDIATE, PREPARATION METHOD THEREFOR AND USE THEREOF” (Jiangsu NHWA Pharmaceutical Co., Ltd, priority 2023, dated 2024)",
  "key": {"Male SD rats [1]": {"test_system": "Male SD rats", "test": "Hypnotic efficacy: loss of righting reflex (LORR) in rats", "type": "in vivo", "procedure": "The sequential method was used to determine the ED50 (median effective dose) for the loss of righting reflex (LORR) by the compounds of the present disclosure in rats: Male SD rats, weighing 200-300 grams, were used. Each compound was dissolved in normal saline and administered via tail vein injection at an initial dose at a constant injection rate over 10 s (one rat per dose). […] This process was repeated, and the results were recorded in the AOT425 Statpm software until the software could calculate the ED50, at which point the experiment was terminated. The hypnotic efficacy of the compounds of the present disclosure was evaluated using ED50 with lower ED50 values indicating stronger efficacy.\nComparison of onset time and duration: Male SD rats, weighing 200-300 grams, were used. Each compound was dissolved in normal saline and administered via tail vein injection at a constant injection rate over 10 s, with 10 rats per group. […] The onset time and duration were recorded.\nThe onset time refers to the period from the completion of injection to when the rat is placed in a supine position, with the criterion for loss of righting reflex defined as the rat's inability to spontaneously revert to a prone position using its forelimbs and maintained for ≥10 s, which serves as an indicator of compound efficacy; the duration refers to the sustained period during which the rat remains in a state of losing righting reflex. The spontaneous recovery of the righting reflex in the rat is considered the cessation of the efficacy."}, "Male SD rats [2]": {"test_system": "Male SD rats", "test": "Fluctuations in blood pressure and heart rate after administration", "type": "in vivo", "procedure": "Male SD rats, weighing 250-300 g, with 4 rats per group, were maintained under general anesthesia by isoflurane inhalation. Femoral artery cannulation was performed, and blood pressure and heart rate were monitored using a Powerlab data acquisition and analysis system. 30 min after the baseline values stabilized, the baseline mean arterial pressure (MAP0) and baseline heart rate (HR0) were measured. The rats were given a solution of each compound in normal saline via tail vein injection (the dose of each compound was the same as in Test Example 3, with rapid intravenous injection over 10 s). Blood pressure and heart rate were continuously recorded for 90 min. MAP^+ (the difference between the maximum mean arterial pressure (MAPmax) and MAP0), MAP^-(the difference between the minimum mean arterial pressure (MAPmin) and MAP0), and HR^- (the difference between the minimum heart rate (HRmin) and HR0) within 90 min were calculated. For calculation, the maximum increase rate of mean arterial pressure = MAP^+/MAP0 × 100%; the maximum decrease rate of mean arterial pressure = MAP^-/MAP0 × 100%; and the maximum decrease rate of heart rate = HR^-/HR0 × 100%."}, "[3]": {"settings": "in words, compared with dexmedetomidine hydrochloride, rats"}, "[4]": {"settings": "loss of righting reflex, male SD rats, tail vein injection, dose twice the ED50, 10 rats per group"}, "[5]": {"settings": "isoflurane-anesthetized male SD rats, tail vein injection, dose as in Test Example 3"}, "[6]": {"settings": "isoflurane-anesthetized male SD rats, tail vein injection, dose as in Test Example 3, within 90 min"}},
  "data": [
    {"smiles": "CC(c1c[nH]cn1)c1cccc2c1COC2", "note": "(stereo not drawn) [Compound 5, 4-[1-(1,3-Dihydroisobenzofuran-4-yl)ethyl]-1H-imidazole]", "values": [
      {"measurement": "ED50", "setting": "Male SD rats [1]; Rattus norvegicus, loss of righting reflex, male SD rats, tail vein injection over 10 s, sequential method", "value": 0.0625, "unit": "mg/kg"},
      {"measurement": "Duration", "setting": "Male SD rats [1]; [3]", "value": "significantly shorter"},
      {"measurement": "hypnotic onset time", "setting": "Male SD rats [1]; [3]", "value": "comparable to or slightly longer"},
      {"measurement": "Duration", "setting": "Male SD rats [1]; [4]", "value": "531.10±559.16", "unit": "S"},
      {"measurement": "Onset time", "setting": "Male SD rats [1]; [4]", "value": "99.20±29.98", "unit": "S"},
      {"measurement": "induce sleep in rats", "setting": "Male SD rats [1]; time to induce sleep, rats, dose twice the ED50", "value": "≤ 5", "unit": "min"},
      {"measurement": "maximum decrease rates of HR", "setting": "Male SD rats [2]; [3]", "value": "lower"},
      {"measurement": "maximum increase rates of MAP", "setting": "Male SD rats [2]; [3]", "value": "lower"},
      {"measurement": "recovery of HR", "setting": "Male SD rats [2]; [3]", "value": "faster"},
      {"measurement": "HR decrease Duration", "setting": "Male SD rats [2]; [5]", "value": 30, "unit": "min"},
      {"measurement": "MAP increase Duration", "setting": "Male SD rats [2]; [5]", "value": 2, "unit": "min"},
      {"measurement": "HR decrease Maximum decrease rate", "setting": "Male SD rats [2]; [6]", "value": "24.7±4.5", "unit": "%"},
      {"measurement": "MAP decrease Maximum decrease rate", "setting": "Male SD rats [2]; [6]", "value": "7.4±9.2", "unit": "%"},
      {"measurement": "MAP increase Maximum increase rate", "setting": "Male SD rats [2]; [6]", "value": "19.9±6.3", "unit": "%"},
      {"measurement": "decreases in MAP", "setting": "Male SD rats [2]; no significant decreases greater than the stated value, rats", "value": "≤ 10", "unit": "%"}
    ]}
  ]
}
